Where “and” joins values, the source holds several entries; their conditions need not be identical. Equal entries are not always repeated.
System: 648629-189-R-J1-PDC complex spheroids viability
Experiment: Anticancer human tumor 648629-189-R-J1-PDC patient-derived bladder carcinoma cell line growth inhibition [CLK]
Details: for viability, T/C: stronger effect = lower value; active = viability on the fitted dose curve at most 10% of control; inactive = the rest
Description: A high-throughput screen of multi-cell type tumor spheroids was designed to identify active combinations of […] and targeted small molecules. Complex spheroids include a stromal component modeled by human endothelial cells (HUVEC) and fibroblasts modeled by human mesenchymal stem cells (MSCs). The concentration ranges selected for each drug and investigational agent were based upon clinically achievable concentrations if the clinical Cmax of the agent was known.
Compounds. The drugs and investigational agents: cirtuvivint (SM08502; NSC835563), CC-671 (NSC850746), vemurafenib (NSC761431), tapotoclax (NSC804041), sotorasib (NSC818433), adagrasib (NSC831453), MRTX-1133 (NSC836407), BAY2416964 (NSC825713), copanlisib (NSC816437), inavolisib (NSC800729), abemaciclib (NSC768073), osimertinib (NSC779217), entinostat (NSC756642), eltanexor (KPT-8602, NSC794443), venetoclax (NSC766270), ceralasertib (NSC777638), bortezomib (NSC756655), olaparib (NSC753686), talazoparib (NSC767125), alisertib (NSC759677), peposertib (NSC802822), gemcitabine (NSC613327), 5-fluorouracil (NSC19893), SN-38 (NSC673596), oxaliplatin (NSC266046), paclitaxel (NSC125973), and doxorubicin (NSC123127), were obtained from the National Cancer Institute (NCI) Developmental Therapeutics Program Chemical Repository. The FDA-approved anticancer drug set is available from the Developmental Therapeutics Program at https://dtp.cancer.gov/organization/dscb/obtaining/available plates.htm. […] The stock solutions were prepared in dimethyl sulfoxide (DMSO, Sigma-Aldrich, St. Louis, MO, cat. D2650), except for the platinum complexes which were prepared in saline (Quality Biological, Gaithersburg, MD, cat. 114-055-101), at 800-fold the tested concentration and stored at -70 degrees C prior to their use. All drugs and investigational agents were tested over a range starting from a high concentration at or near the clinical Cmax and decreasing in half-log increments. If the clinical Cmax for an agent had not been determined, the highest concentration tested was 10 microM.
Cell Culture. All cells were maintained in an incubator at 37 degrees C and 5% CO2 with 95% humidity. The PDC lines were cultured according to standard operating procedures established by the NCI PDMR. Briefly, all PDCs were thawed and cultured in Matrigel-coated flasks prepared with a working solution of 1X Ham's F-12 nutrient mix, without supplementation (Invitrogen, Waltham, MA, cat. 11765054), 100 U/mL penicillin-streptomycin (Invitrogen, cat. 15140122), and 2.5% Matrigel (Corning Inc., Corning, NY, cat. 354248) for the first three passages. The 947758-054-R-J2-PDC line was cultured in 6B/Colon 1A media, which includes advanced DMEM/F-12 (Thermo Fisher Scientific, cat. 12634028), 10 mM HEPES (Thermo Fisher Scientific, cat. 15630080), 1X GlutaMAX supplement (Thermo Fisher Scientific, cat. 35050061), 0.1 mg/mL primocin (InvivoGen, cat. ant-pm-2), 10% defined fetal bovine serum, heat inactivated (HyClone Laboratories Inc., cat. SH30070.03HI), 1.25 mM N-Acetyl-L-cysteine (Sigma-Aldrich, cat. A9165), 10 mM nicotinamide (Sigma-Aldrich, cat. N0636), 1X B-27 supplement (Thermo Fisher Scientific, cat. 17504044), 1X N-2 supplement (Thermo Fisher Scientific, cat. 17502048), and 10 microM Y-27632 dihydrochloride (Tocris Bioscience, cat. 1254). The 876862-298-R-J1-PDC was cultured in 6E media, which includes all 6B/Colon 1A media components plus 50% L-WRN conditioned media (ATCC, cat. CRL-3276), 50 ng/mL recombinant human EGF recombinant protein (hEGF; Thermo Fisher Scientific, cat. PHG0311), 10 ng/mL recombinant human fibroblast growth factor 10 (hGFG-10; PeproTech, cat. 100-26), 1 ng/mL recombinant human fibroblast growth factor 2 (hFGF-2; PeproTech, cat. 100-18B), and 1 µM prostaglandin E2 (PGE2; Tocris, cat. 2296). The 227483-062-R1-J1-PDC line was cultured in Panc media, containing all 6E components except hFGF-2, with the addition of 500 nM SB-431542 (Selleckchem, cat. S1067) and 10 nM gastrin (Tocris, cat. 3006). […]

[1] = curve of first compound, second compound 0.0316 µM
[2] = curve of first compound, second compound 0.1 µM
[3] = curve of first compound, second compound 0.316 µM
[4] = curve of first compound, second compound 1 µM
[5] = curve of first compound, second compound 3.16 µM
[6] = curve of first compound, second compound 10 µM
[7] = second compound 0.0316 µM, first compound 0.0316 µM
[8] = second compound 0.0316 µM, first compound 0.1 µM
[9] = second compound 0.0316 µM, first compound 0.316 µM
[10] = second compound 0.0316 µM, first compound 1 µM
[11] = second compound 0.1 µM, first compound 0.0316 µM
[12] = second compound 0.1 µM, first compound 0.1 µM
[13] = second compound 0.1 µM, first compound 0.316 µM
[14] = second compound 0.1 µM, first compound 1 µM
[15] = second compound 0.316 µM, first compound 0.0316 µM
[16] = second compound 0.316 µM, first compound 0.1 µM
[17] = second compound 0.316 µM, first compound 0.316 µM
[18] = second compound 0.316 µM, first compound 1 µM
[19] = second compound 1 µM, first compound 0.0316 µM
[20] = second compound 1 µM, first compound 0.1 µM
[21] = second compound 1 µM, first compound 0.316 µM
[22] = second compound 1 µM, first compound 1 µM
[23] = second compound 3.16 µM, first compound 0.0316 µM
[24] = second compound 3.16 µM, first compound 0.1 µM
[25] = second compound 3.16 µM, first compound 0.316 µM
[26] = second compound 3.16 µM, first compound 1 µM
[27] = second compound 10 µM, first compound 0.0316 µM
[28] = second compound 10 µM, first compound 0.1 µM
[29] = second compound 10 µM, first compound 0.316 µM
[30] = second compound 10 µM, first compound 1 µM
[31] = second compound 0.0316 µM, first compound 0.00316 µM
[32] = second compound 0.0316 µM, first compound 0.01 µM
[33] = second compound 0.1 µM, first compound 0.00316 µM
[34] = second compound 0.1 µM, first compound 0.01 µM
[35] = second compound 0.316 µM, first compound 0.00316 µM
[36] = second compound 0.316 µM, first compound 0.01 µM
[37] = second compound 1 µM, first compound 0.00316 µM
[38] = second compound 1 µM, first compound 0.01 µM
[39] = second compound 3.16 µM, first compound 0.00316 µM
[40] = second compound 3.16 µM, first compound 0.01 µM
[41] = second compound 10 µM, first compound 0.00316 µM
[42] = second compound 10 µM, first compound 0.01 µM
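Throughout, for viability, T/C: drug exposure lasted seven days before viability readout; 100% = DMSO vehicle control wells.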

Nc1ccccc1NC(=O)c1ccc(CNC(=O)OCc2cccnc2)cc1 + CN1CCN(c2cc(C(=O)Nc3cc4cc(-c5cnn(C)c5)ccc4cn3)ccn2)CC1
1840 nM: IC50 [2]
inactive: viability, T/C [7] 124% | viability, T/C [8] 125% | viability, T/C [9] 96.9% | viability, T/C [10] 72.2% | viability, T/C (second compound 0.0316 µM, first compound 3.16 µM) 32.5% | viability, T/C [11] 107% | viability, T/C [12] 109% | viability, T/C [13] 96.9% | viability, T/C [14] 71.7% | viability, T/C (second compound 0.1 µM, first compound 3.16 µM) 31% | viability, T/C [15] 37.4% | viability, T/C [16] 46.7% | viability, T/C [17] 39.1% | viability, T/C [18] 33.8% | viability, T/C (second compound 0.316 µM, first compound 3.16 µM) 7.95%
active: viability, T/C (second compound 0.0316 µM, first compound 10 µM) 1.56% | viability, T/C (second compound 0.1 µM, first compound 10 µM) 1.87% | viability, T/C (second compound 0.316 µM, first compound 10 µM) 0.08% | viability, T/C [19] 0.41% | viability, T/C [20] 0.4% | viability, T/C [21] 0.31% | viability, T/C [22] 0.07% | viability, T/C (second compound 1 µM, first compound 3.16 µM) 0.1% | viability, T/C (second compound 1 µM, first compound 10 µM) 0.53% | viability, T/C [23] 0.08% | viability, T/C [24] 1.97% | viability, T/C [25] 0.1% | viability, T/C [26] 0.07% | viability, T/C (second compound 3.16 µM, first compound 3.16 µM) 0.07% | viability, T/C (second compound 3.16 µM, first compound 10 µM) 2.02% | viability, T/C [27] 0.04% | viability, T/C [28] 0.11% | viability, T/C [29] 0.12% | viability, T/C [30] 0.14% | viability, T/C (second compound 10 µM, first compound 3.16 µM) 2.26% | viability, T/C (second compound 10 µM, first compound 10 µM) 0.17%
1870 nM: IC50 [1]
< 31.6 nM: IC50 [3] | IC50 [4] | IC50 [5] | IC50 [6]

CCN1CCN(Cc2ccc(Nc3ncc(F)c(-c4cc(F)c5nc(C)n(C(C)C)c5c4)n3)nc2)CC1 + CN1CCN(c2cc(C(=O)Nc3cc4cc(-c5cnn(C)c5)ccc4cn3)ccn2)CC1
active: viability, T/C [37] 0.42% | viability, T/C [38] 0.24% | viability, T/C [19] 0.61% | viability, T/C [20] 0.35% | viability, T/C [21] 0.54% | viability, T/C [22] 0.32% | viability, T/C [39] 0.14% | viability, T/C [40] 0.26% | viability, T/C [23] 0.49% | viability, T/C [24] 0.15% | viability, T/C [25] 0.16% | viability, T/C [26] 0.16% | viability, T/C [41] 0.21% | viability, T/C [42] 0.21% | viability, T/C [27] 0.17% | viability, T/C [28] 0.16% | viability, T/C [29] 1.22% | viability, T/C [30] 1.51%
inactive: viability, T/C [31] 108% | viability, T/C [32] 101% | viability, T/C [7] 101% | viability, T/C [8] 127% | viability, T/C [9] 122% | viability, T/C [10] 123% | viability, T/C [33] 104% | viability, T/C [34] 104% | viability, T/C [11] 102% | viability, T/C [12] 101% | viability, T/C [13] 108% | viability, T/C [14] 101% | viability, T/C [35] 37% | viability, T/C [36] 48.5% | viability, T/C [15] 41.7% | viability, T/C [16] 50.6% | viability, T/C [17] 47.3% | viability, T/C [18] 40.4%
< 3.16 nM: IC50 [3] | IC50 [4] | IC50 [5] | IC50 [6]
> 1000 nM: IC50 [1] | IC50 [2]

CCCS(=O)(=O)Nc1ccc(F)c(C(=O)c2c[nH]c3ncc(-c4ccc(Cl)cc4)cc23)c1F
7510 nM and 6090 nM: IC50 (curve of compound)
inactive: viability, T/C (compound 0.0316 µM) 99.7% and 107% | viability, T/C (compound 0.1 µM) 97% and 82.6% | viability, T/C (compound 0.316 µM) 98.6% and 98.2% | viability, T/C (compound 1 µM) 104% and 93.3% | viability, T/C (compound 3.16 µM) 108% and 90% | viability, T/C (compound 10 µM) 32.9% and 19.8%

CCc1c2c(nc3ccc(O)cc13)-c1cc3c(c(=O)n1C2)COC(=O)[C@]3(O)CC + CN1CCN(c2cc(C(=O)Nc3cc4cc(-c5cnn(C)c5)ccc4cn3)ccn2)CC1
active: viability, T/C [7] 7.53% | viability, T/C [8] 5.28% | viability, T/C [9] 3.93% | viability, T/C [10] 3.89% | viability, T/C [11] 6.89% | viability, T/C [12] 4.76% | viability, T/C [13] 4.13% | viability, T/C [14] 4.88% | viability, T/C [16] 6.46% | viability, T/C [17] 6.71% | viability, T/C [18] 3.75% | viability, T/C [37] 0.15% | viability, T/C [38] 0.14% | viability, T/C [19] 0.15% | viability, T/C [20] 0.06% | viability, T/C [21] 0.21% | viability, T/C [22] 1.34% | viability, T/C [39] 0.05% | viability, T/C [40] 1.41% | viability, T/C [23] 0.1% | viability, T/C [24] 0.07% | viability, T/C [25] 0.3% | viability, T/C [26] 0.54% | viability, T/C [41] 0.05% | viability, T/C [42] 0.52% | viability, T/C [27] 0.17% | viability, T/C [28] 0.15% | viability, T/C [29] 0.22% | viability, T/C [30] 0.48%
inactive: viability, T/C [31] 36.5% | viability, T/C [32] 14.7% | viability, T/C [33] 29% | viability, T/C [34] 15.4% | viability, T/C [35] 22.5% | viability, T/C [36] 16.7% | viability, T/C [15] 10.8%
< 3.16 nM: IC50 [1] | IC50 [2] | IC50 [3] | IC50 [4] | IC50 [5] | IC50 [6]

Source: PubChem BioAssay AID2060602 (Molecular Pharmacology Branch, DTP, NCI, 2025)
